Experimental data taken from patent US8563729B2, “Thienopyridone derivatives as AMP-activated protein kinase (AMPK) activators” (Merck Patent GmbH, priority 2008, dated 2013).

Experiments:
[1] = tested on: H-2 Kb cells; test: Glucose uptake in H-2 Kb cells (in vitro cellular test); type: cell-based, mouse; settings: H-2 Kb cells differentiated in muscle, 4 hours incubation, 2-deoxy-D-[1,2 3H] glucose uptake 10 min
Description: Glucose Uptake in H-2 Kb Cells (In Vitro Cellular Test)
The following cellular test allows the determination of the effect of AMPK activators such as compounds of formula (I) onto glucose uptake in a muscle cellular model.
H-1-2 Kb cells derived from heterozygous H-2 Kb tsA58 transgenic mouse were grown in 24-well in plates coated with matrigel and were cultured at 33° C. for 4 days under permissive conditions, as described previously by Fryer et al. (Diabetes 49 (12): 1978, 2000).
For differentiation in muscle, cells were switched to non-permissive culture conditions (37° C. in the absence of interferon-γ). After 3 days, cells were incubated for 4 hours in DMEM 1 g/l glucose culture medium containing different concentrations of the tested molecules. Then glucose uptake was measured by incubating the cells for 10 min with radiolabelled 2-deoxy-D-[1,2 ^3H] glucose. Glucose uptake was terminated by rapidly washing the plates 2 times with ice-cold NaCl 0.9%. The cells were then solubilized in 0.1N NaOH for 30 min. Radioactivity was determined by liquid scintillation counting.
N°: Number of the molecule
Activity (table III): Concentration of compound (I) for a glucose uptake equal or higher to glucose uptake induced by insulin (170 nM)
^++ or **concentration of compound (I) ≦10 micro Molar
^+ or *concentration of compound (I) >10 micro Molar

[2] = target: T1, AMPK protein (recombinant α1β1γ2) (Homo sapiens, UniProt Q13131+Q9Y478); test: AMPK enzymatic activity (Delfia, AMARA peptide substrate); type: biochemical; settings: compound 30 μM vs AMP 30 μM; 125 μM ATP; ratio 90% or higher = direct activator
T1 construct: made in house; host or cells: E. coli
How it was run: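 Human α1β1γ2 AMPK expressed in E. coli, reactivated in vitro by LKB1, assayed in 50 mM Hepes pH 7.4 with 125 μM ATP and AMARA peptide for 30 min at room temperature; phosphorylation detected by Delfia anti-phosphoserine antibody. Activity = % of basal control at 30 μM compound relative to that of 30 μM AMP.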

T1 sequence (Q13131 whole entry): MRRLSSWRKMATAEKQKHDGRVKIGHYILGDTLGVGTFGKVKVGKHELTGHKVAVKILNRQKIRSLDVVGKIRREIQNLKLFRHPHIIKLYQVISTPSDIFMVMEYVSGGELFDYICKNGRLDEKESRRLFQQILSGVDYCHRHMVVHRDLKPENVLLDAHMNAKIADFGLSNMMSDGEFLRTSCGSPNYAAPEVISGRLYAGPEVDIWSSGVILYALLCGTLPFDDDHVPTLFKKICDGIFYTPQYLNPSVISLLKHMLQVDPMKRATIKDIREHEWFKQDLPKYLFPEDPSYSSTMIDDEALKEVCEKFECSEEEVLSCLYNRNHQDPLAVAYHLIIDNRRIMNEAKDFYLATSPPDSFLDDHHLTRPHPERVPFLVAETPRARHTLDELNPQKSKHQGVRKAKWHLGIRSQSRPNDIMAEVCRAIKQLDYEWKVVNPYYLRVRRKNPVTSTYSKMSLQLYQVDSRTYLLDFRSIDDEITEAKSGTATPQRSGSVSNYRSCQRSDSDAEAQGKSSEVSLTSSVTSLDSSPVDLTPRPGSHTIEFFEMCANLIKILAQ
T1 sequence (Q9Y478 whole entry): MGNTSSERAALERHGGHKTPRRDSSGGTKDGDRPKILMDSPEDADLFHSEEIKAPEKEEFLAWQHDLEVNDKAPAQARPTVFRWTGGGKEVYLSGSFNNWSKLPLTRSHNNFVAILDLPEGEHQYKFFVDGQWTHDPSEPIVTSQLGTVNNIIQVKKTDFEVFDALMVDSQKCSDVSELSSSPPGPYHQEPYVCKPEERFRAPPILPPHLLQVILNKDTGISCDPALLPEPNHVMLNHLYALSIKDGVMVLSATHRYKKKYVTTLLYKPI
T1 sequence (Q9UGJ0 whole entry partner): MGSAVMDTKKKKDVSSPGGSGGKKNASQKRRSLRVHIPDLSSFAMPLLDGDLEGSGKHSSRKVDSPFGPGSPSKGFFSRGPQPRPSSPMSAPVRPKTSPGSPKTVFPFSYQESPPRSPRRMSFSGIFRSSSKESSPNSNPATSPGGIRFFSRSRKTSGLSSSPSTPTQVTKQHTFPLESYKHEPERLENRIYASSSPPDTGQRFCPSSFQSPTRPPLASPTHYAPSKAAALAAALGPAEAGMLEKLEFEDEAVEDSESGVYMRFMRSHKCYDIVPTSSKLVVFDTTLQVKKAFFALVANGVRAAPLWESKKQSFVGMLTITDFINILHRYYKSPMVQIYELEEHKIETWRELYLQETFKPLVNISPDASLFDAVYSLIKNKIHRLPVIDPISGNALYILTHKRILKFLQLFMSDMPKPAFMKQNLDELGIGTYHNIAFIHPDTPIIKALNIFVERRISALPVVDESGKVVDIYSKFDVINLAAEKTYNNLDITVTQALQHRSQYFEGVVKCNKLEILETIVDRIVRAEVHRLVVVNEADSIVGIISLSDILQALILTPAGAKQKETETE

| SMILES | activity: Ratio between the % of control (basal activity) of compound of formula (I) at 30 μM and the % of control (basal activity) of AMP at 30 μM [2] [%] | Activity (table III): Concentration of compound (I) for a glucose uptake equal or higher to glucose uptake induced by insulin (170 nM) [1] |
| --- | --- | --- |
| COc1ccc(-c2c(Cl)sc3[nH]c(=O)c(-c4ccccc4)c(O)c23)cc1OC [Compound 190] | 256 | + (^+ or *concentration of compound (I) >10 micro Molar) |
| O=c1[nH]c2scc(-c3ccc(F)cc3)c2c(O)c1-c1ccccc1 [Compound 27] | 114 | * (^+ or *concentration of compound (I) >10 micro Molar) |
| Cc1ccc(-c2c(Cl)sc3[nH]c(=O)c(-c4cccc(C(=O)O)c4)c(O)c23)c(O)c1 [Compound 192] | 193 | ++ (^++ or **concentration of compound (I) ≦10 micro Molar) |
| CC(C)c1ccc(-c2c(Cl)sc3[nH]c(=O)c(-c4ccccc4)c(O)c23)cc1 [Compound 182] | 165 | + (^+ or *concentration of compound (I) >10 micro Molar) |
| COc1ccc(-c2c(O)c3c(-c4ccccc4)c(C)sc3[nH]c2=O)cc1 [Compound 13] | 126 | * (^+ or *concentration of compound (I) >10 micro Molar) |
| CCc1ccc(-c2c(Cl)sc3[nH]c(=O)c(-c4ccccc4)c(O)c23)cc1 [Compound 181] | 559 | ++ (^++ or **concentration of compound (I) ≦10 micro Molar) |
| Cc1sc2[nH]c(=O)c(-c3ccc(O)cc3)c(O)c2c1-c1ccccc1 [Compound 14] | 116 | * (^+ or *concentration of compound (I) >10 micro Molar) |
| COc1ccc(-c2c(O)c3c(-c4ccc(F)cc4O)c(Cl)sc3[nH]c2=O)cc1 [Compound 212] | 183 | + (^+ or *concentration of compound (I) >10 micro Molar) |
| O=c1[nH]c2sc(Cl)c(-c3ccccc3)c2c(O)c1-c1cccc(C(F)(F)F)c1 [Compound 143] | 99 | * (^+ or *concentration of compound (I) >10 micro Molar) |
| Cc1sc2[nH]c(=O)c(-c3ccccc3)c(O)c2c1-c1ccccc1 [Compound 10] | 96 | * (^+ or *concentration of compound (I) >10 micro Molar) |
| CCCc1ccc(-c2c(Cl)sc3[nH]c(=O)c(-c4ccccc4)c(O)c23)cc1 [Compound 183] | 146 | + (^+ or *concentration of compound (I) >10 micro Molar) |
| O=c1[nH]c2scc(-c3ccc(C(F)(F)F)cc3)c2c(O)c1-c1ccccc1 [Compound 36] | 121 | * (^+ or *concentration of compound (I) >10 micro Molar) |
| COc1cccc(-c2c(Cl)sc3[nH]c(=O)c(-c4ccccc4)c(O)c23)c1 [Compound 128] | 181 | * (^+ or *concentration of compound (I) >10 micro Molar) |
| N#Cc1sc2[nH]c(=O)c(-c3ccccc3)c(O)c2c1-c1ccccc1 [Compound 9, 2-cyano-3,5-diphenyl-4-hydroxy-6,7-dihydro-thieno[2,3-]pyridin-6-one] | 410 | * (^+ or *concentration of compound (I) >10 micro Molar) |
| O=c1[nH]c2scc(-c3ccccc3)c2c(O)c1-c1ccc(O)cc1 [Compound 20] | 99 | * (^+ or *concentration of compound (I) >10 micro Molar) |
| O=c1[nH]c2scc(-c3ccc4ccccc4c3O)c2c(O)c1-c1ccccc1 [Compound 34] | 625 | * (^+ or *concentration of compound (I) >10 micro Molar) |

The next lines start with results.

| activity: Ratio between the % of control (basal activity) of compound of formula (I) at 30 μM and the % of control (basal activity) of AMP at 30 μM [2] [%] | SMILES | Activity (table III): Concentration of compound (I) for a glucose uptake equal or higher to glucose uptake induced by insulin (170 nM) [1] |
| --- | --- | --- |
| 131 | O=c1[nH]c2sc(Cl)c(-c3ccc(F)c(F)c3O)c2c(O)c1-c1ccccc1 [Compound 208] | + (^+ or *concentration of compound (I) >10 micro Molar) |
| 160 | O=c1[nH]c2sc(Cl)c(-c3ccccc3)c2c(O)c1-c1ccc(Cl)cc1 [Compound 173] | ++ (^++ or **concentration of compound (I) ≦10 micro Molar) |
| 184 | Cc1ccc(-c2c(Cl)sc3[nH]c(=O)c(-c4ccc(F)cc4)c(O)c23)c(O)c1F [Compound 206] | + (^+ or *concentration of compound (I) >10 micro Molar) |
| 349 | O=c1[nH]c2sc(Cl)c(-c3ccc(F)cc3O)c2c(O)c1-c1ccc(F)cc1 [Compound 213] | + (^+ or *concentration of compound (I) >10 micro Molar) |
| 236 | Cc1ccc(-c2c(Cl)sc3[nH]c(=O)c(-c4ccccc4)c(O)c23)c(O)c1 [Compound 104] | * (^+ or *concentration of compound (I) >10 micro Molar) |
| 238 | O=c1[nH]c2sc(Cl)c(-c3ccccc3)c2c(O)c1-c1ccccc1F [Compound 165] | + (^+ or *concentration of compound (I) >10 micro Molar) |
| 121 | O=c1[nH]c2sc(Cl)c(-c3ccccc3)c2c(O)c1-c1cccc(O)c1 [Compound 148] | ** (^++ or **concentration of compound (I) ≦10 micro Molar) |
| 181 | Cc1ccc(-c2c(Cl)sc3[nH]c(=O)c(-c4ccccc4)c(O)c23)c(O)c1F [Compound 210] | ++ (^++ or **concentration of compound (I) ≦10 micro Molar) |
| 143 | O=c1[nH]c2sc(Cl)c(-c3ccccc3O)c2c(O)c1-c1ccccc1 [Compound 121] | * (^+ or *concentration of compound (I) >10 micro Molar) |
| 167 | O=c1[nH]c2sc(Cl)c(-c3ccc4c(Cl)cccc4c3O)c2c(O)c1-c1ccccc1 [Compound 184] | ++ (^++ or **concentration of compound (I) ≦10 micro Molar) |
| 101 | O=c1[nH]c2sc(Cl)c(-c3ccccc3F)c2c(O)c1-c1ccccc1 [Compound 119] | * (^+ or *concentration of compound (I) >10 micro Molar) |
| 245 | Cc1ccc(-c2c(O)c3c(-c4ccccc4)c(Cl)sc3[nH]c2=O)cc1 [Compound 174] | + (^+ or *concentration of compound (I) >10 micro Molar) |
